Experimental data from patent EP1081131A1 (priority 1998, dated 1999).

How the values were obtained:
[1] = Acute toxicity on mice (per os); conditions: mouse, in vivo, white mice, per os in 0.5% solution of starch for 5 days; for LD50 at 5 days: oral; for LD50: po
Protocol: A study of acute toxicity was carried out according to a standard method on white mice. The animals received the preparation per os in a 0.5% solution of starch for 5 days.

[2] = Carrying of cations from one aqueous phase to another through a layer of nonpolar organic solvent (lipophil membrane); format: physicochemical
Protocol: Purification of the prepared compounds is controlled by the TLC method. The meanings of Rf of the claimed compounds were determined using "Sorbfil" plates (Silicagel CTX-1A, UV) (Russia) or "Silufol- UV" plates (Czechoslovakia). The composition and structure of the new compounds were confirmed by element analysis (C,H,N,O analyzer of the Karlo Erba firm) and also IR (Specord-UV-.751R) and PMR spectroscopy (Tesla BS-597A, 100 MHz). An UZDN-2T ultrasound disperser at a frequency of 22 kHz was used to carry out the reaction with ultrasound action. The cation-carrying properties of the claimed compounds were studied in accordance with a generally accepted method, which consists of studying the carrying of a cation from one aqueous phase to another aqueous phase through a layer of a nonpolar organic solvent.

[3] = tested on: H37Rv; experiment: Antimycobacterial activity in vitro, vertical diffusion on dense nutrient; format: cell-based, mycobacteria; conditions: Typical strain H37Rv
[4] = tested on: M.fortuirum; experiment: as above; format: cell-based; conditions: Atypical strain M.fortuirum
[5] = tested on: M. smegmatis; experiment: as above; format: cell-based; conditions: Atypical strain M. smegmatis
[6] = tested on: M. avium; experiment: as above; format: cell-based; conditions: Atypical strain M. avium
[7] = tested on: M. bovis; format: cell-based; conditions: Typical strain M. bovis
[8] = tested on: Lactobacteria; experiment: Antibacterial activity in vitro, preparation in a cavity of nutrient agar; format: cell-based; conditions: Table 7
Protocol: (§1) The antibacterial activity of the claimed compounds was studied with the method of seeding solutions of the preparation in a cavity. The test-microbe was put in a Petri dish containing a simple nutrient agar. The preparation in an amount of 0.02 ml in necessary concentrations was put in a cavity located in the middle of the Petri dish. The results were taken after 24-hour incubation in a thermostat at 37°C by determination of the zone of delay of growth of the microorganisms along the edges of the cavity.

[9] = tested on: E. coli; experiment: as above; format: cell-based
Protocol: as §1

[10] = tested on: S. epidermides; experiment: as above; format: cell-based; conditions: Table 7
Protocol: as §1

[11] = tested on: S. aureus; experiment: as above; format: cell-based; conditions: Table 6
Protocol: as §1

[12] = tested on: P. vulgaris; experiment: as above; format: cell-based; conditions: Table 6
Protocol: as §1

[13] = tested on: Candida Albicans; experiment: as above; format: cell-based; conditions: Table 6
Protocol: as §1

[14] = tested on: Sensitive to streptomycin, rifamycin and isoniazid; experiment: Bacteriostatic activity on patient strains (Table 4); format: cell-based, mycobacteria of tuberculosis; conditions: taken from patients, Central SRI of Tuberculosis RAMS 1997
[15] = tested on: strain H37Rv; experiment: Therapeutic action on infected guinea pigs; format: in vivo; conditions: for Average change in weight of pigs during test / Weight of lungs / Weight of spleen: 21 mg/kg (isoniazid equivalent dose), 5 times a week for 60 days

| Compound | Antimycobacterial activity of claimed preparations in tests In vitro [3] | Antimycobacterial activity of claimed preparations in tests In vitro [4] | Antimycobacterial activity of claimed preparations in tests In vitro [6] | Inhibiting level [8] | Inhibiting level ([9]; Table 7) | Inhibiting level [10] | other results |
| --- | --- | --- | --- | --- | --- | --- | --- |
| O=Cc1ccccc1OCCOCCOc1ccccc1C=O | – | – | – | – | – | – | LD50 at 5 days [1]: > 2000 mg/kg |
| 1,5-Bis(2-phenyl hydrazonomethyl phenoxy)-3-oxapentane | – | – | – | – | – | – | Speed of carrying ([2]; Cation of metal Cu): 2.0 mol h^-1 10^-7; Speed of carrying ([2]; Cation of metal Fe): 60.0 mol h^-1 10^-7; Speed of carrying ([2]; Cation of metal K): 34.5 mol h^-1 10^-7; Speed of carrying ([2]; Cation of metal Na): 28.7 mol h^-1 10^-7 |
| O=Cc1ccc(Cl)cc1OCCOc1cc(Cl)ccc1C=O [1,2-Bis(2-formyl-5-chlorphenoxy)-ethane] | 0.4 µg/mL | 25.0 µg/mL | 25.0 µg/mL | – | – | – | Antimycobacterial activity of claimed preparations in tests In vitro [5]: 6.3 to 12.5 µg/mL; Antimycobacterial activity of claimed preparations in tests In vitro [7]: 0.4 µg/mL |
| COc1cc(C=NNC(=O)c2ccccc2)ccc1OCCOc1ccc(C=NNC(=O)c2ccccc2)cc1OC [1,2-Bis(2-methoxy-4-benzoyl hydrazonomethylphenoxy)-ethane] | – | – | – | >50 µg/mL | >50 µg/mL | >50 µg/mL | – |
| O=C(NN=Cc1c(OCCOc2ccc3ccccc3c2C=NNC(=O)c2ccccc2)ccc2ccccc12)c1ccccc1 [1,2-Bis[2(benzoyl hydrazonomethylnaphthoxy-2)]-ethane] | – | – | – | >50 µg/mL | >50 µg/mL | >50 µg/mL | – |
| O=C(NN=Cc1ccccc1OCCOCCOc1ccccc1C=NNC(=O)c1ccccc1)c1ccccc1 [1,5-Bis(2-benzoyl hydrazonomethylphenoxy)-3-oxapentane] | – | – | – | – | – | – | LD50 [1]: > 1000 mg/kg |
| O=C(NN=Cc1ccccc1OCCOCCOc1ccccc1C=NNC(=O)c1ccncc1)c1ccncc1 [1,5-Bis(2-isonicotinoyl hydrazonomethylphenoxy)-3-oxapentane] | 0.01 µg/mL | 12.5 µg/mL | 25.0 µg/mL | – | – | – | Inhibiting level [11]: >500 µg/mL; Inhibiting level ([9]; Table 6): >500 µg/mL; Inhibiting level [12]: >500 µg/mL; Inhibiting level [13]: >500 µg/mL; Antimycobacterial activity of claimed preparations in tests In vitro [5]: 12.5 µg/mL; Antimycobacterial activity of claimed preparations in tests In vitro [7]: 0.01 µg/mL; Inhibiting level [14]: 0.58 µg/mL |
| O=Cc1ccccc1OCCOc1ccccc1C=O [1,8-Bis(2-formylphenoxy)-ethane] | – | – | – | >200 µg/mL | >200 µg/mL | >200 µg/mL | – |
| O=C(NN=Cc1ccccc1OCCOCCOCCOc1ccccc1C=NNC(=O)c1ccncc1)c1ccncc1 [1,8-bis(2-isonicotinoyl hydrazonomethylphenoxy)-3,6-dioxaoctane] | 0.05 µg/mL | 12.5 µg/mL | 25.0 µg/mL | – | – | – | Inhibiting level [11]: >500 µg/mL; Inhibiting level ([9]; Table 6): >500 µg/mL; Inhibiting level [12]: >500 µg/mL; Inhibiting level [13]: >500 µg/mL; Average change in weight of pigs during test [15]: 148.80 ± 29.40 g; Weight of lungs [15]: 4.90 ± 0.90 g; Weight of spleen [15]: 8.98 ± 0.15 g; Antimycobacterial activity of claimed preparations in tests In vitro [5]: 12.5 µg/mL; LD50 [1]: > 2000 mg/kg |
| O=C(NN=Cc1ccccc1OCCCCOCCCCOc1ccccc1C=NNC(=O)c1cccnc1)c1cccnc1 [1,9-Bis(2-nicotinoyl hydrazonomethylphenoxy)-5-oxanonon] | – | – | – | >100 µg/mL | >100 µg/mL | >100 µg/mL | – |
| O=C(NN=Cc1ccccc1OCCOCCOCCOCCOc1ccccc1C=NNC(=O)c1ccncc1)c1ccncc1 [1.11-Bis(2-isonicotinoyl hydrazonomethylphenoxy)-3,6,9-trioxaundecane] | – | – | – | >50 µg/mL | >50 µg/mL | >50 µg/mL | – |
| C=CCSc1nc2ccc(NC(=O)c3ccccc3Cl)cc2s1 [Compound formula (II), 2-(allylthio)-6-(2-chlorobenzoylamino)benzothiazole, reference compound] | 10.0 µg/mL | 10.0 µg/mL | 25.0 µg/mL | – | – | – | – |
| NNC(=O)c1ccncc1 [Isoniazid, hydrazide of isonicotinic acid, reference compound] | 0.05 µg/mL | 50.0 µg/mL | 50.0 µg/mL | – | – | – | Average change in weight of pigs during test [15]: 180.60 ± 18.80 g; Weight of lungs [15]: 4.49 ± 0.80 g; Weight of spleen [15]: 9.34 ± 0.30 g; tuberculosis changes after the end of the course of treatment ([15]; after 60 days of treatment): detected as morphological, not as bacteriological; Antimycobacterial activity of claimed preparations in tests In vitro [5]: 50.0 µg/mL; Antimycobacterial activity of claimed preparations in tests In vitro [7]: 0.05 µg/mL; LD50 at 5 days [1]: 363 mg/kg; Inhibiting level [14]: 0.29 µg/mL |
| O=C(NN=Cc1cccc(OCCOCCOCCOc2cccc(C=NNC(=O)c3cccnc3)c2)c1)c1cccnc1.[Ni] [[1,8-Bis(3-nicotinoyl hydrazonomethyl phenoxy)-3,6-dioxaoctanejnickel(II)] | – | – | – | >50 µg/mL | >50 µg/mL | >50 µg/mL | – |
